According to ChEMBL document CHEMBL1201862, “PubChem BioAssay data set” (2004):
The source made the active and inactive calls.

Legend:
cells = type: functional
[1] = NIH-3T3 fibroblast cytotoxicity, dose response, cytotoxicity control, cell-based, fluorescence, Alamar Blue, secondary assay (AID 2327); type: functional;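 further: NIH-3T3 mouse fibroblasts cultured with fluconazole at 8 µg/mL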
[2] = C. albicans growth with fluconazole, confirmation, fluorescence, retest (AID 2467); type: functional, cell-based
[3] = inhibitors of intracellular T. cruzi replication, confirmation, NIH3T3 host cells, beta-gal luminescence (AID 2044); type: functional, cell-based;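 further: intracellular parasites grown in NIH/3T3 mouse fibroblasts as host cells; luminescent beta-galactosidase reporter signal from transgenic T. cruzi replicating inside host cells; inhibitors lower the luminescence signal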
[4] = cytotoxicity toward NIH3T3 fibroblasts, dose response, counter-screen, cell-based, ATP luminescence, mouse fibroblasts (AID 2010); type: functional;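 further: cells exposed to compound for about 90 hours before reading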
[5] = target: T1, Microphthalmia-associated transcription factor (Homo sapiens, UniProt O75030); experiment: TRPM1 promoter luciferase signal decrease, dose response, MITF inhibitor project, cell-based, SK-MEL-5, cherry-picked, set 3 (AID 493073); type: functional
T1 sequence (O75030 whole entry): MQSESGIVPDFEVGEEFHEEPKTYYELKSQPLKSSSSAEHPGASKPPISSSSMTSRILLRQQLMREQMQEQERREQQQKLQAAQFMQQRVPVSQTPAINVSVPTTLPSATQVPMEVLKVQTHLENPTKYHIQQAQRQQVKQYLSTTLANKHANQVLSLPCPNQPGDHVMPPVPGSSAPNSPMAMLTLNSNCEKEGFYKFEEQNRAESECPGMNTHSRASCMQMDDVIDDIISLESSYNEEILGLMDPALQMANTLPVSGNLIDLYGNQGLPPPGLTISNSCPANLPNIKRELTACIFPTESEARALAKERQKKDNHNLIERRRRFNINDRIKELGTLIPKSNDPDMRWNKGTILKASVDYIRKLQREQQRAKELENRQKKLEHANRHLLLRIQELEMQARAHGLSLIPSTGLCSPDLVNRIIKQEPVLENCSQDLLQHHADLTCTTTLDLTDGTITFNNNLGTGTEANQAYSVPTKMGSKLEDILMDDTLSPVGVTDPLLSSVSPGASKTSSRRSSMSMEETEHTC

INS1 = experiment: beta cell apoptosis inhibitors, cytokine rescue, dose response, luminescence, retest (AID 449756); type: functional, cell-based; settings: Rattus norvegicus;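 further: cell death triggered by IL-1 beta plus TNF-alpha plus IFN-gamma mixture; protective hits raise ATP signal compared with cytokine alone wells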
SUMO-activating enzyme [6] = target: T2, SUMO-activating enzyme (Homo sapiens, UniProt Q9UBT2); experiment: SUMOylation inhibitor hit validation, confirmation, SUMOylation inhibitor project, biochemical, AlphaScreen (AID 2018); type: functional
SUMO-activating enzyme [7] = target: T2, SUMO-activating enzyme; experiment: inhibitors of in vitro SUMOylation cascade, primary screen, biochemical, HTRF, uHTS (AID 2006); type: protein-complex assay
[8] = target: T3, Calpain-2 catalytic subunit (Sus scrofa, UniProt P43367); experiment: pig calpain II inhibitor potency, dose response, biochemical, fluorogenic peptide substrate (AID 1420); type: functional
T3 sequence (P43367 whole entry): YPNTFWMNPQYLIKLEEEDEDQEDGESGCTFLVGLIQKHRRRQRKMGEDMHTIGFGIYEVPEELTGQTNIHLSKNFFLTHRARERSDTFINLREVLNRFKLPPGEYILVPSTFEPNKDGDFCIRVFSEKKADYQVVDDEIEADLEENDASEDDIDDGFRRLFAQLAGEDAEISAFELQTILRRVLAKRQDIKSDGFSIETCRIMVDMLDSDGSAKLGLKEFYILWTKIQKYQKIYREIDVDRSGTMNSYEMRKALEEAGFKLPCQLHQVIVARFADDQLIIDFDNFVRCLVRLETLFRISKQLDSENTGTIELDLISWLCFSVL

Bcl-2-related protein A1 = target: T4, Bcl-2-related protein A1 (Mus musculus, UniProt Q07440); type: functional;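 further: confirmatory dose–response counterscreen on Bfl-1, used to check hits from a UBC13 polyubiquitin inhibitor campaign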
T4 sequence (Q07440 whole entry): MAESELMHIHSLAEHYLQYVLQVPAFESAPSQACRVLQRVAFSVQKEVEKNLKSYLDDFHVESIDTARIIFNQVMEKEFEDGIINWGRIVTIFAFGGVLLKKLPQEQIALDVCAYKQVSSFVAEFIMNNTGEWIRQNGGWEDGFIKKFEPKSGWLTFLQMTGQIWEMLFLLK

[9] = target: T5, Ubiquitin-conjugating enzyme E2 N (Homo sapiens, UniProt P61088); type: functional
T5 sequence (P61088 whole entry): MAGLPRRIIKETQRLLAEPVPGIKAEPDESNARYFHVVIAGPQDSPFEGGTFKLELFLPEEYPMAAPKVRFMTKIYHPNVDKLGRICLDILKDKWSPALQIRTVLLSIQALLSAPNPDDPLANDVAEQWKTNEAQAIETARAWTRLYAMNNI

[10] = target: T5, Ubiquitin-conjugating enzyme E2 N; type: functional; remark: listed apart in the source
[11] = cytotoxicity in HEK-293T cells, dose response, cytotoxicity control for BCR NF-kB inhibitor project, luminescence, B-cell screen hits (AID 489021); type: functional, cell-based;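 further: HEK-293T cells carrying an NF-kB luciferase reporter; cells exposed to compound for about 14 hours before viability readout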
BJ [12] = experiment: cytotoxicity toward BJ-TERT fibroblasts, dose response, cell-based, RAS-independent, luminescence (AID 1933); type: functional; settings: Homo sapiens
BJ [13] = experiment: cells; type: functional, cell-based; settings: Homo sapiens
BJ [14] = experiment: cytotoxicity toward BJ-TERT-LT-ST fibroblasts, dose response, cell-based, RAS-independent, luminescence (AID 1935); type: functional; settings: Homo sapiens;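 further: BJ fibroblasts immortalized with TERT plus LT and ST oncogenes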
[15] = cytotoxicity toward DRD oncogenic fibroblasts, dose response, cell-based, non-viral oncogenic, luminescence (AID 1934); type: functional; settings: Homo sapiens
Leucine aminopeptidase = target: T6, Leucine aminopeptidase (Plasmodium falciparum 3D7, UniProt Q8IL11); experiment: P. falciparum M17LAP inhibitors, primary screen, biochemical, fluorogenic H-Leu-NHMec substrate, 1536-well (AID 1619); type: functional
T6 sequence (Q8IL11 whole entry): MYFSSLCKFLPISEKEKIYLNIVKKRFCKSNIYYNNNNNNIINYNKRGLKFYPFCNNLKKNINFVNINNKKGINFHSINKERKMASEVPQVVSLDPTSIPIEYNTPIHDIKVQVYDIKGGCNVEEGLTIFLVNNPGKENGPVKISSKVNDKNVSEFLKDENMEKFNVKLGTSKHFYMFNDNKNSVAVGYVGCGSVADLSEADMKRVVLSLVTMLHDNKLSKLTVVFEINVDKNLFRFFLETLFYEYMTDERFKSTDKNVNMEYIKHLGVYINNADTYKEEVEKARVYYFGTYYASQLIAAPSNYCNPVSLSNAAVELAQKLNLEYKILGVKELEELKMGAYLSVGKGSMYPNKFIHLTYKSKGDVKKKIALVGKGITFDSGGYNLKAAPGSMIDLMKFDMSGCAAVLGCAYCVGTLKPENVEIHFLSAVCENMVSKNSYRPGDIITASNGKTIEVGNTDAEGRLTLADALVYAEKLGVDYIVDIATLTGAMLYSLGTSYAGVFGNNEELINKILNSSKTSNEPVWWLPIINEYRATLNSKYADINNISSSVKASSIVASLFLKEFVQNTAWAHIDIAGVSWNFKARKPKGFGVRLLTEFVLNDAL

Aminopeptidase N = target: T7, Aminopeptidase N (Plasmodium falciparum FcB1/Columbia, UniProt O96935); experiment: P. falciparum M1AAP inhibitors, biochemical, fluorogenic H-Leu-NHMec substrate, 1536-well (AID 1445); set-up: species or system Plasmodium falciparum 3D7, 3D7
T7 sequence (O96935 whole entry): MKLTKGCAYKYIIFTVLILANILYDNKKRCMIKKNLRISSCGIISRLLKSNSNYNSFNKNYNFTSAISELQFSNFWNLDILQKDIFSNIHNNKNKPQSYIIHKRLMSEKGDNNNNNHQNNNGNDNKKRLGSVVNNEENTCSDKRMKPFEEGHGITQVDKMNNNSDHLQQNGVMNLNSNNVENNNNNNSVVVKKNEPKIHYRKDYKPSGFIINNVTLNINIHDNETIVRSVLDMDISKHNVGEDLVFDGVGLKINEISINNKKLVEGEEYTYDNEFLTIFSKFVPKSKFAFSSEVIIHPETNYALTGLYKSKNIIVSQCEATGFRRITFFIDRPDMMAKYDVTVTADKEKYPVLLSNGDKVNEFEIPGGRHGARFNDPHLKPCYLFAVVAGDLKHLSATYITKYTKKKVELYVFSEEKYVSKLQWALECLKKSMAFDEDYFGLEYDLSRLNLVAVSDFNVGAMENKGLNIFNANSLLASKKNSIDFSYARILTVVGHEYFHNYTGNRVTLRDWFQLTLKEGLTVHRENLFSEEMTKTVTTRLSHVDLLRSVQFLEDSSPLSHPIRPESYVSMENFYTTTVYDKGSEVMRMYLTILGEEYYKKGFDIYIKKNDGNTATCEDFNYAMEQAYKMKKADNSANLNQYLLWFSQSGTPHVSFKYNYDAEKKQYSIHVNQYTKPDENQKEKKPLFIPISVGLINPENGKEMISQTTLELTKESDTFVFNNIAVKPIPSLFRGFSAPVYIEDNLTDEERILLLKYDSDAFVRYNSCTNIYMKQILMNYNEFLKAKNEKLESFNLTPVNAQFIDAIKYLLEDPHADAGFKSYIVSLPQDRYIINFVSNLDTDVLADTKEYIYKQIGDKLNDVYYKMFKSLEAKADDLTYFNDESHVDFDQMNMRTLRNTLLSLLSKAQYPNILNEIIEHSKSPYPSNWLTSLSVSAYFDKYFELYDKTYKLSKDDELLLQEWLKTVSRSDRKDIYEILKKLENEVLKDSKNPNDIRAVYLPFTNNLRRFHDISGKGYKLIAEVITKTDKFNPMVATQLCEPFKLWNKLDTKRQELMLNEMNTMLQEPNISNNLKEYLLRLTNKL

[16] = target: Induced myeloid leukemia cell differentiation protein Mcl-1 (Homo sapiens, UniProt Q07820); type: functional
[17] = target: T8, Carboxy-terminal domain RNA polymerase II polypeptide A small phosphatase 1 (Homo sapiens, UniProt Q9GZU7); experiment: inhibitors of CTDSP1, concentration-response testing, biochemical assay, absorbance-based, actives from ultra-high-throughput screening (AID 540297); type: functional
T8 sequence (Q9GZU7 whole entry): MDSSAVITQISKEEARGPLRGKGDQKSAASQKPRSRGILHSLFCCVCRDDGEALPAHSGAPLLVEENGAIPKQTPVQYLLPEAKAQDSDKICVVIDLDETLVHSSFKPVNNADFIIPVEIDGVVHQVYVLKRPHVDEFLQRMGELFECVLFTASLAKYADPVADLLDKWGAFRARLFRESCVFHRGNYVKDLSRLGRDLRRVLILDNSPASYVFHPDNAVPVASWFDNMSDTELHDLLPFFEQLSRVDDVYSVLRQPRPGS

T2 sequence (Q9UBE0 whole entry): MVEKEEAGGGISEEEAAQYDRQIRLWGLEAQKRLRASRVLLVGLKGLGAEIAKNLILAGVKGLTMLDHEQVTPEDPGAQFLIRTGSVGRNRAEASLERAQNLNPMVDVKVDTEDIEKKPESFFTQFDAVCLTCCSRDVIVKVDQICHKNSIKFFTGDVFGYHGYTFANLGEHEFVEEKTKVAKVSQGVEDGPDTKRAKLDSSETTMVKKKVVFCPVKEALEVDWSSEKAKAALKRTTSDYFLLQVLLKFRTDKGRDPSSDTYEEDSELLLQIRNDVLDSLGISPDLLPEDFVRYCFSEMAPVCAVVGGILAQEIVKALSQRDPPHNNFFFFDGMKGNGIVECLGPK
T2 sequence (Q9UBT2 whole entry): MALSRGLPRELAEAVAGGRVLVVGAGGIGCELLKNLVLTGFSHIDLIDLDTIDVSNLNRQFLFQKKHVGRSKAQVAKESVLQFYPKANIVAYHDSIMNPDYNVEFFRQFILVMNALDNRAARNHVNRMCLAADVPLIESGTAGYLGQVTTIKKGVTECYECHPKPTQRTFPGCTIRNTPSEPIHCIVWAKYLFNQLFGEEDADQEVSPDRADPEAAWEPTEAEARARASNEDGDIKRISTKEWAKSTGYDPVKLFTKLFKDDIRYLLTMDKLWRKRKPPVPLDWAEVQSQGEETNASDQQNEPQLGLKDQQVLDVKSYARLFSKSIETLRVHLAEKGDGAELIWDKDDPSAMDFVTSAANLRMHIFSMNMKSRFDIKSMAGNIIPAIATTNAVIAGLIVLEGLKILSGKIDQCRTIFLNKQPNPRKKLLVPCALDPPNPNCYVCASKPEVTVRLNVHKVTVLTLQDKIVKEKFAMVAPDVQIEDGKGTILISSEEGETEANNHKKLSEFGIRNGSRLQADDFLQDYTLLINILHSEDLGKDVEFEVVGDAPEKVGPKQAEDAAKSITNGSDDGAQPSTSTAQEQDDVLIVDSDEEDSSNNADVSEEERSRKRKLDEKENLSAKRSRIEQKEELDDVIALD
Sequence of Induced myeloid leukemia cell differentiation protein Mcl-1 (Q07820 whole entry, the tested form may be a part): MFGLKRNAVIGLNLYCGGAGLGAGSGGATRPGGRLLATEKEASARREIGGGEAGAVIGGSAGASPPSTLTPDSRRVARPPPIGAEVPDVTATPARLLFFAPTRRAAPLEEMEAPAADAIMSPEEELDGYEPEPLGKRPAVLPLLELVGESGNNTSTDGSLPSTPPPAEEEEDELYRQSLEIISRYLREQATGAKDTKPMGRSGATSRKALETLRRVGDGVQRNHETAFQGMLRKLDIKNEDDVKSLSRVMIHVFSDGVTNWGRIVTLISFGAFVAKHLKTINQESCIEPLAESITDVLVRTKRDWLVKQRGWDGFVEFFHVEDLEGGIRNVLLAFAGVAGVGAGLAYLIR

Cc1cc(NC(=O)COc2ccccc2)ccc1Cl
IC50 (cells): > 50 µM (active)

COc1ccc(-c2cc(-c3ccccc3)[n+](C)c(-c3ccccc3)c2)cc1.[O-][Cl+3]([O-])([O-])[O-]
EC50 [1]: > 160 µM (inactive) | EC50 [2]: 0.57 µM (active) | EC50 [3]: 0.131 µM (active) | EC50 [4]: > 60 µM (not active) | AC50 [5]: 3.2 µM (active) | AC50 (INS1): 2.85 µM (active)

O=C(COC(=O)c1cc(Br)ccc1O)Nc1ccc2c(c1)OCO2
IC50 (cells): 22.1 µM (active)

O=C(Nc1ccc2oc(=O)ccc2c1)c1ccc(-c2cccc(Cl)c2)o1
IC50 (SUMO-activating enzyme [6]): 15.8 µM (active) | IC50 (SUMO-activating enzyme [7]): 6.77 µM (active) | IC50 [8]: 11.6 µM (not active)

CC(C)CC(C(=O)NC(C)(C)C)N(CC1CCCO1)C(=O)c1snc(C(N)=O)c1N (stereo not given)
IC50 (Bcl-2-related protein A1): > 20 µM (inactive) | IC50 [9]: 13.4 µM (active) | IC50 [10]: 11.2 µM (active)

CCN(CC)S(=O)(=O)c1ccc(N2CCOCC2)c(NC(=O)c2[nH]c(C)c(C(C)=O)c2C)c1
IC50 [11]: > 80 µM (inactive)

COc1cc(OC)cc(C(=O)NNC(=O)C2CCCC2)c1
EC50 (BJ [12]): > 150 µM (not active) | EC50 (BJ [13]): > 150 µM (not active) | EC50 (BJ [14]): > 150 µM (not active) | EC50 [15]: > 150 µM (not active)

CCOC(=O)c1c(C)[nH]c(C)c1C(=O)COC(=O)c1ccc([N+](=O)[O-])s1
IC50 (cells): 8.59 µM (active)

CCOc1ccccc1Nc1nnc(SCC(=O)NC(Cc2c[nH]c3ccccc23)C(=O)O)s1 (stereo not given)
IC50 (Leucine aminopeptidase): 7.81 µM (active) | IC50 (Aminopeptidase N): 67.4 µM (active)

CS(=O)(=O)C1=NSC2=NC(=O)/C(=C\c3cccn3-c3ccc(Cl)cc3)C(=N)N21
IC50 (Aminopeptidase N): 5.15 µM (active) | IC50 [16]: 4.98 µM (active) | IC50 [17]: 5.93 µM (active)
